# Columns and labels:
# [1] = tested on: male C57BL/6J mice fed a high-fat diet; experiment: High-fat diet mouse experiment with D-psicose drinking water: body weight gain and fasting blood glucose; assay type: in vivo
# Protocol: Eight-week-old (week 0) male C57BL/6J mice (total 4 groups, n=7) were fed a high-fat diet and tap water (control) or D-psicose-containing water, or antibiotics in addition to these (Control+Abx, D-psicose+Abx). During the experimental period, the body weight of the mice, the water intake, and the food intake were measured weekly, and the feces were collected. The samples at weeks 0 and 5 were used for analysis. The fasting blood glucose level was measured at week 9. The mice were dissected after 11 weeks.
# (§1) The average (g) of the body weight gain at week 5 (13 weeks old) from start of rearing (8 weeks old) is shown (n =7). The error bars represent standard deviations (SDs). Control (white): high-fat diet+tap water, D-psicose (black): high-fat diet +5.0% D-psicose, Abx−: without antibiotic treatment, Abx+: with antibiotic treatment. The antibiotics were 0.1% ampicillin sodium, 0.1% neomycin sulfate, and 0.05% vancomycin hydrochloride. The Student's t-test was used in significance testing. A p-value of 0.05 or less is considered significant and indicated by*in the figure.
# as §1, with “15-hour fasting blood glucose level (mg/dl)” for “average (g) of the body weight gain”, “9 after” for “5 (13 weeks old) from”, “rearing” for “rearing (8 weeks old)”, “(n=7).” for “(n =7).”
# (§2) Twenty eight 6-week-old male C57BL/6J mice (CLEA Japan, Inc.) were provided and fed a normal diet CE-2 (CLEA Japan, Inc.) and tap water for 2 weeks, followed by acclimation. The mice were divided into 4 groups (7 mice per group): (i) tap water-administered group, (ii) D-psicose water-administered group, (iii) tap water and antibiotic-administered group, and (iv) D-psicose water and antibiotic-administered group. The experiment was started at 8 weeks old. For food, the mice in all groups were freely fed a high-fat diet HFD32 (CLEA Japan, Inc.). […] During the experimental period, the body weight of the mice, the water intake, and the food intake were measured weekly, and the feces were collected. […] At week 9 (17 weeks old) from the start of the experiment, the fasting blood glucose level, an indicator of diabetes, was measured. After 15-hour fasting, the side of the tail was pricked with a syringe needle (Terumo Corporation), and the blood glucose level was measured by using a glucometer (Nipro StatStrip XP3). […]
# [2] = tested on: genus Atopobium (intestinal microbe, SEQ ID NO:1 OTU); experiment: 16S rRNA gene analysis of intestinal microbiota in fecal samples of D-psicose-administered mice; assay type: in vivo, mouse; conditions: 5.0% D-psicose water, high-fat diet, fecal samples at week 5, vs tap water control (FIG. 4)
# Protocol: The relative abundance of the genus Atopobium in the fecal samples at week 5 from start of rearing is shown. The relative abundance is calculated as the percentage of the genus Atopobium in the total reads. Control (white): high-fat diet+tap water, D-psicose (black): high-fat diet +5.0% D-psicose. The Mann-Whitney U test was used in significance testing. A p-value of 0.001 or less is considered significant and indicated by P<0.001: in the figure.
# as §2, with “old.” for “old. For food, the mice in all groups were freely fed a high-fat diet HFD32 (CLEA Japan, Inc.).”
smiles,measurement,setting,value
O=C(CO)[C@H](O)[C@H](O)[C@H](O)CO [D-psicose],body weight gain due to the intake of high-fat diet,"[1]; 5.0% (w/v) D-psicose in drinking water, without antibiotic treatment, week 5, vs tap water control (FIG. 2)",significantly suppresses the body weight gain
same,suppression of body weight gain,"[1]; 5.0% D-psicose water plus antibiotics (0.1% ampicillin sodium, 0.1% neomycin sulfate, 0.05% vancomycin hydrochloride), intestinal microbes removed (FIG. 2)",not observed
same,"fasting blood glucose level, difference between groups","[1]; 5.0% D-psicose water plus antibiotics vs tap water plus antibiotics, 15-hour fasting, week 9 (FIG. 3)",no significant difference
same,fasting blood glucose level,"[1]; 5.0% D-psicose water, without antibiotics, 15-hour fasting, week 9, vs tap water control (FIG. 3)",significantly reduces the blood glucose level
same,"growth (relative abundance) of the intestinal microbe, genus Atopobium, in feces",[2],significantly grows
